Patent US12312333B2, “SK channel positive allosteric modulators” (Chapman University, priority 2021, dated 2025)

Target: T1, rat KCa2.2a (UniProt P0DP23+P70604)
T1 construct: expressed in transfected cells; host or cells: HEK293
Experiment: Inside-out patch-clamp potentiation of KCa2.2a channels expressed in HEK293 cells
Type: cell-based
Conditions: for EC50 / activity / potency on KCa2.2a channels: inside-out patch; for EC50: HEK293, 0.15 μM Ca2+, current at −90 mV, read-out: EC50 (mean ± SEM, μM) on potentiating KCa2.2a channels; for efficacy (Emax) on KCa2.2a channels: normalized to 10 μM Ca2+
Experimental: The impact of adding one substituent group at C4 of the cyclohexane moiety of CyPPA with either electron donating (OH (2a), NH2 (2b), CH2OH (2c), and OCH3 (2d)) or electron-withdrawing groups (F (2e) and NO2 (2f)) was explored. The potency of the newly synthesized compounds compared to the template CyPPA was measured via inside-out patch clamp electrophysiology recordings with KCa2.2a channels heterologously expressed in HEK293 cells (FIG. 1A). […] The responses induced by 10 μM Ca^2+ are considered the maximal currents of the KCa2.2a channels. To evaluate the efficacy (Emax) of compounds on KCa2.2a channels, the current amplitudes at −90 mV in response to the maximal concentration of compounds were normalized to that obtained at 10 μM Ca^2+ (I/Imax (%), FIG. 1C).
The effect of newly synthesized compounds on the KCa2.x/KCa3.1 channels was investigated as previously described (Nam, Y. W.; et al, Acta Physiol (Oxf) 2020, e13552; Nam, Y. W.; et al. Scientific reports 2018, 8 (1), 10749). Briefly, the rat KCa2.2a, human KCa2.1, human KCa2.3 or human KCa3.1 channels cDNA constructs were either generated in-house or through molecular cloning services (Genscript). The channel cDNAs, along with CaM and GFP, at a ratio of 7:4:2 (ORF ratios), were transfected into HEK293 cells by the calcium-phosphate method. KCa currents were recorded 1-2 days after transfection, with an Axon200B amplifier (Molecular Devices) at room temperature. The resistance of the patch electrodes ranged from 3-5 MΩ. The pipette solution contained (in mM): 140 KCl, 10 Hepes (pH 7.4), 1 MgSO4. The bath solution containing (in mM): 140 KCl, 10 Hepes (pH 7.2), 1 EGTA, 0.1 Dibromo-BAPTA, and 1 HEDTA was mixed with Ca^2+ to obtain the desired free Ca^2+ concentrations, calculated using the software by Chris Patton of Stanford University (https://somapp.ucdmc.ucdavis.edu/pharmacology/bers/maxchelator/webmaxc/webmaxcS.htm). The Ca^2+ concentrations were verified using a Ca^2+ calibration buffer kit (Thermo Fisher Scientific). Briefly, a standard curve was generated using the Ca^2+ buffers from the kit and a fluorescence Ca^2+ indicator. Then, the Ca^2+ concentrations of the bath solution were determined through interpolation on the standard curve.
High resistance seals (>1 GΩ) were formed before inside-out patches were obtained. The seal resistance of inside-out patches was >1 GΩ, when the intracellular face was initially exposed to a zero-Ca^2+ bath solution. Currents were recorded by repetitive 1-s-voltage ramps from −100 mV to +100 mV from a holding potential of 0 mV. The currents were filtered at 2 kHz and digitized at a sampling frequency of 10 kHz. At the end of experiment, the integrity of the patch was examined by switching the bath solution back to the zero-Ca^2+ buffer. Data from patches, which maintained the seal resistance (>1 GΩ) after solution changes, were used for further analysis.
To measure the effect of CyPPA (Alomone Labs) and newly synthesized compounds, the intracellular face was exposed to bath solutions with 0.15 μM Ca^2+. One minute after switching of bath solutions, ten sweeps with a 1-s interval were recorded at a series of concentrations of compound in the presence of 0.15 μM Ca^2+. The maximal KCa2.x/KCa3.1 current in response to 10 μM Ca^2+ was then recorded.
Patch-clamp recordings were analyzed using Clampfit 10.5 (Molecular Devices LLC) and concentration-response curves were analyzed in GraphPad Prism 9.0.2 (GraphPad Software Inc.). To construct the concentration-dependent potentiation of channel activities by compound, the current amplitudes at −90 mV in response to various concentrations of the compound were normalized to that obtained at a maximal concentration of compound. The normalized currents were plotted as a function of the concentrations of the compound. EC50 values and Hill coefficients were determined by fitting the data points to a standard concentration-response curve (Y=100/(1+(X/EC50)^−Hill)). […]

Compound	EC50 [µM]	Emax (HEK293, current at −90 mV at maximal compound concentration normalized to 10 μM Ca2+, read-out: Emax on KCa2.2a channels (I/Imax)) [%]	activity / potency on KCa2.2a channels (HEK293)	efficacy (Emax) on KCa2.2a channels
Cc1cc(NC2CCC(O)CC2)nc(-n2nc(C)cc2C)n1 (stereo not shown) [Compound 2a, 4-((2-(3,5-Dimethyl-1H-pyrazol-1-yl)-6-methylpyrimidin-4-yl)amino)cyclohexan-1-ol]	> 100			
Cc1cc(NC2CCC(N)CC2)nc(-n2nc(C)cc2C)n1 (stereo not shown) [Compound 2b, N^1-(2-(3,5-Dimethyl-1H-pyrazol-1-yl)-6-methylpyrimidin-4-yl)cyclohexane-1,4-diamine]	> 100			
Cc1cc(NC2CCC(CO)CC2)nc(-n2nc(C)cc2C)n1 (stereo not shown) [Compound 2c, (4-((2-(3,5-Dimethyl-1H-pyrazol-1-yl)-6-methylpyrimidin-4-yl)amino)cyclohexyl) methanol]	> 100			
COC1CCC(Nc2cc(C)nc(-n3nc(C)cc3C)n2)CC1 (stereo not shown) [Compound 2d, 2-(3,5-Dimethyl-1H-pyrazol-1-yl)-N-(4-methoxycyclohexyl)-6-methylpyrimidin-4-amine]	49.7 ± 4.38	77.3 ± 4.95		
Cc1cc(NC2CCC(F)CC2)nc(-n2nc(C)cc2C)n1 (stereo not shown) [Compound 2e, 2-(3,5-Dimethyl-1H-pyrazol-1-yl)-N-(4-fluorocyclohexyl)-6-methylpyrimidin-4-amine]	> 100			
Cc1cc(NC2CCC([N+](=O)[O-])CC2)nc(-n2nc(C)cc2C)n1 (stereo not shown) [Compound 2f, 2-(3,5-Dimethyl-1H-pyrazol-1-yl)-6-methyl-N-(4-nitrocyclohexyl)pyrimidin-4-amine]	> 100			
Cc1cc(NCCc2ccc([N+](=O)[O-])cc2)nc(-n2nc(C)cc2C)n1 [Compound 2g, 2-(3,5-Dimethyl-1H-pyrazol-1-yl)-6-methyl-N-(4-nitrophenethyl)pyrimidin-4-amine]	> 100			
Cc1cc(NC(Cc2ccc(C#N)cc2)C(=O)O)nc(-n2nc(C)cc2C)n1 (stereo not shown) [Compound 2h, 3-(4-Cyanophenyl)-2-((2-(3,5-dimethyl-1H-pyrazol-1-yl)-6-methylpyrimidin-4-yl)amino)propanoic acid]	> 100			
Cc1cc(N[C@@H](Cc2ccc(O)cc2)C(=O)O)nc(-n2nc(C)cc2C)n1 [Compound 2i, (2-(3,5-Dimethyl-1H-pyrazol-1-yl)-6-methylpyrimidin-4-yl)tyrosine]	> 100			
Cc1cc(NC(Cc2ccc(F)c(F)c2)C(=O)O)nc(-n2nc(C)cc2C)n1 (stereo not shown) [Compound 2j, 3-(3,4-Difluorophenyl)-2-((2-(3,5-dimethyl-1H-pyrazol-1-yl)-6-methylpyrimidin-4-yl)amino)propanoic acid]	> 100			
Cc1cc(Nc2ccc(S)cc2)nc(-n2nc(C)cc2C)n1 [Compound 2k, 4-((2-(3,5-Dimethyl-1H-pyrazol-1-yl)-6-methylpyrimidin-4-yl)amino)-benzenethiol]	> 100		inactive	
Cc1cc(Nc2ccc([N+](=O)[O-])cc2)nc(-n2nc(C)cc2C)n1 [Compound 2l, 2-(3,5-Dimethyl-1H-pyrazol-1-yl)-6-methyl-N-(4-nitrophenyl)pyrimidin-4-amine]	> 100		inactive	
Cc1cc(Nc2cccc(F)c2F)nc(-n2nc(C)cc2C)n1 [Compound 2m, N-(2,3-Difluorophenyl)-2-(3,5-dimethyl-1H-pyrazol-1-yl)-6-methyl-pyrimidin-4-amine]	5.03 ± 0.59			
Cc1cc(Nc2cc(F)ccc2F)nc(-n2nc(C)cc2C)n1 [Compound 2n, N-(2,5-Difluorophenyl)-2-(3,5-dimethyl-1H-pyrazol-1-yl)-6-methylpyrimidin-4-amine]	1.89 ± 0.16			
Cc1cc(Nc2ccc(Cl)cc2F)nc(-n2nc(C)cc2C)n1 [Compound 2p, N-(4-Chloro-2-fluorophenyl)-2-(3,5-dimethyl-1H-pyrazol-1-yl)-6-methyl-pyrimidin-4-amine]	1.99 ± 0.11			
Cc1cc(Nc2cc(F)ccc2Cl)nc(-n2nc(C)cc2C)n1 [Compound 2r, N-(2-Chloro-5-fluorophenyl)-2-(3,5-dimethyl-1H-pyrazol-1-yl)-6-methylpyrimidin-4-amine]	2.97 ± 0.27			
Cc1cc(Nc2ccc(C(F)(F)F)cc2)nc(-n2nc(C)cc2C)n1 [Compound 2s, 2-(3,5-Dimethyl-1H-pyrazol-1-yl)-6-methyl-N-(4-(trifluoromethyl)-phenyl)pyrimidin-4-amine]	3.45 ± 0.42		did not significantly change the potency compared with CyPPA	
Cc1cc(Nc2ccc(C(F)(F)F)c(Cl)c2)nc(-n2nc(C)cc2C)n1 [Compound 2t, N-(3-Chloro-4-(trifluoromethyl)phenyl)-2-(3,5-dimethyl-1H-pyrazol-1-yl)-6-methyl-pyrimidin-4-amine]	3.27 ± 0.3			
Cc1cc(Nc2cc(Cl)cc(C(F)(F)F)c2)nc(-n2nc(C)cc2C)n1 [Compound 2u, N-(3-Chloro-5-(trifluoromethyl)phenyl)-2-(3,5-dimethyl-1H-pyrazol-1-yl)-6-methylpyrimidin-4-amine]	> 100			
COc1cc2nc(Nc3cc(C)nc(-n4nc(C)cc4C)n3)[nH]c2cc1OC [Compound 2w, N-(2-(3,5-Dimethyl-1H-pyrazol-1-yl)-6-methylpyrimidin-4-yl)-5,6-dimethoxy-1H-benzo[d]imidazol-2-amine]	> 100			
Cc1cc(C)n(-c2cc(C)c(Nc3ccc(F)c(Cl)c3)nn2)n1 [Compound 7, N-(3-Chloro-4-fluorophenyl)-6-(3,5-dimethyl-1H-pyrazol-1-yl)-4-methylpyridazin-3-amine]	4.32 ± 0.32		reduced potency	retaining their efficacy
N^1-(2,5-Difluorophenyl)-6-(3,5-dimethyl-1H-pyrazol-1-yl)pyrimidine-2,4-diamine [Compound 3f]	> 100			
N^1-(2-Chloro-5-fluorophenyl)-6-(3,5-dimethyl-1H-pyrazol-1-yl)pyrimidine-2,4-diamine [Compound 3e]	> 100			
N^1-(3-Chloro-4-(trifluoromethyl)phenyl)-6-(3,5-dimethyl-1H-pyrazol-1-yl)pyrimidine-2,4-diamine [Compound 3g]	> 100			

Now from value to compound:

EC50 [µM]	Emax (HEK293, current at −90 mV at maximal compound concentration normalized to 10 μM Ca2+, read-out: Emax on KCa2.2a channels (I/Imax)) [%]	activity / potency on KCa2.2a channels (HEK293)	efficacy (Emax) on KCa2.2a channels	Compound
4.51 ± 0.44			retained their efficacy	Cc1cn(-c2nc(C)cc(Nc3cc(Cl)ccc3F)n2)cn1 [Compound 5a, N-(5-Chloro-2-fluorophenyl)-6-methyl-2-(4-methyl-1H-imidazol-1-yl)pyrimidin-4-amine]
38.8 ± 4.02		drastically reduced compared with 2o	decreased compared with 2o	Cc1cn(-c2nc(C)cc(Nc3ccc(F)c(Cl)c3)n2)cn1 [Compound 5b, N-(3-Chloro-4-fluorophenyl)-6-methyl-2-(4-methyl-1H-imidazol-1-yl)pyrimidin-4-amine]
13.8 ± 1.68		lower potency than 2q	retained their efficacy	Cc1cc(Nc2cc(Cl)ccc2F)nc(-c2coc(C)n2)n1 [Compound 6a, N-(5-Chloro-2-fluorophenyl)-6-methyl-2-(2-methyloxazol-4-yl)pyrimidin-4-amine]
3.59 ± 0.33			retained their efficacy	Cc1cc(Nc2ccc(F)c(Cl)c2)nc(-c2coc(C)n2)n1 [Compound 6b, N-(3-Chloro-4-fluorophenyl)-6-methyl-2-(2-methyloxazol-4-yl)pyrimidin-4-amine]
